Patent US10758609B2, “Cross-reactive T-cell epitopes of HIV, SIV, and FIV for vaccines in humans and cats” (priority 2015, dated 2020)
“Also recorded” adds a separate entry of the source.

What was measured:
[1] = tested on: feline CD3^+CD8^+ T cells; experiment: CFSE-based feline CD3+CD8+ T-cell proliferation; parameters: species or system cat; conditions: FIV-vaccinated cats; for CD8, frequency of responders: FIV epitope peptide; for CD8^+ T (T-cell proliferation), frequency of responders: FIV peptides
Method in brief: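 CFSE-labelled PBMCs (2.5×10^5) from cats stimulated 5 days at 37 °C with peptides or overlapping peptide pools at 4 μg/mL each. Proliferating CD3+CD4+ and CD3+CD8+ cells gated by flow. Media/control values subtracted; positive threshold ≥1 CFSE^low (≥0.5 CFSE^low in vaccine trial).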

[2] = ELISA and FIV immunoblot for antibodies to vaccine peptides/MAPs; format: in vivo, cat; conditions: IWV/MAP-vaccinated cats, throughout the vaccination (pilot study)
Procedure: To avoid detection of vaccine antibodies to p24 and RT, post-challenge sera were evaluated for infection-induced FIV antibodies by ELISA using 200 ng/well of transmembrane peptide (TM, aa 694-705: […] (SEQ ID NO:68)) as previously described. The positive threshold for anti-TM antibodies was set at 0.2 O.D. The post-vaccination sera immediately before challenge were evaluated for NAb titer to FIVPet and FIVFC1 by NAb assay as previously described. The post-vaccination/pre-challenge sera were tested for antibodies to vaccine peptides by ELISA using each peptide as substrate and by FIV immunoblot with mini-blot modification as previously described. All ELISA thresholds were set at twice the average of the individual serum from 15-20 SPF cats.

[3] = tested on: FIVFC1; experiment: FIV enhancement and suppression (E/S) analysis of in vitro FIV infection of feline PBMC; format: cell-based, feline immunodeficiency virus; conditions: for Direct effect on in vitro FIV infection (enhancement/suppression): 7 μg/mL peptide or MAP, PBMC of uninfected SPF cats, versus virus control; for FIV Test E/S (enhancer/suppressor analysis): FIV peptides, in vitro FIV infection of uninfected cat PBMC
Procedure: FIV viral enhancement or suppression was determined using a 48-well modification of the method described for detecting FIV enhancing activity of IFNγ and FIV suppressive activity of IFNα [37]. […] MAP1c contained four branched chains of peptide Fp4-3. T-cell mitogen concanavalin A (ConA) at 4 μg/mL was used as an infection enhancing control. Six hours after the culturing with peptide, MAP, or ConA, varying dilutions of FIVFC1 were added to the wells. Seventy-two hours later the cells were re-cultured in fresh culture media with ConA-stimulated autologous PBMC (0.25-0.5×10^6) using the same amount of corresponding peptide, MAP, ConA or media. On Day 7, 10, and 13 of culture, 0.5 mL of culture fluid was collected and 0.5 mL of fresh media added to maintain a consistent volume. The harvested culture samples were analyzed for FIV titer using the previously described RT assay. The results are shown as the end-point dilution titer from two studies using PBMC from different SPF donors.
Statistical analysis. The statistically significant differences between the end-point dilution titers of the peptide or MAP culture samples and either the virus control samples or specific MAP culture samples were calculated using a paired Student t-test with a two-tailed distribution (SigmaPlot version 11.0). Statistical comparisons between pre and post-vaccination(s) were similarly performed. The comparison was considered statistically significant when p<0.05.

[4] = tested on: FIVFC1; experiment: as above; format: cell-based, feline immunodeficiency virus; conditions: FIV-vaccinated cats; for E/S pMAP: viral enhancement or suppression: Palmitoyled Pam-MAP (pMAP) of the peptide, ** = MAP(Fp4-3/Fp14-1); for E/S: viral enhancement or suppression: peptide

Sequence	CD8, frequency of responders [1]	CD8^+ T (T-cell proliferation), frequency of responders [1]	Peptide-specific serum antibodies (ELISA) [2]	Direct effect on in vitro FIV infection (enhancement/suppression) [3]	FIV Test E/S (enhancer/suppressor analysis) [3]	E/S pMAP: viral enhancement or suppression [4]	E/S tMAP: viral enhancement or suppression ([4]; Tat-MAP (tMAP) of the peptide)	E/S: viral enhancement or suppression [4]	Direct effect on in vitro FIV infection (enhancement/suppression) ([3]; listed as Fp4-3 real)
AGLRQSLEQYQVVKQ [FSU4]	+++ (41%-54% (+++))	+++ (40.1%-54% (+++))	–	–	–	–	–	–	–
KFLYTAFAMQELR [FTM4-3]	++ (26%-40% (++))	++ (25.1%-40% (++))	–	–	–	–	–	–	–
KKKSGKWRMLIDFRV [FRT3-3]	+++ (41%-54% (+++))	+++ (40.1%-54% (+++))	No specific antibodies	significant enhancement; also recorded: enhanced in vitro FIV infection; also recorded: enhance/	↑	↓X	↓+	↑	–
LLLILCLPTLVDCIRN [FTM8(20)]	++++ (>54% (++++))	++++ (>54% (++++))	–	–	–	–	–	–	–
PTDMATLIMAAPGCA [Fp4-3]	+ (12.5%-25% (+))	+ (12.5%-25% (+))	No specific antibodies	significantly enhanced FIV infection	↑	↑**	–	↑	enhancing
WRMLIDFRVLNKL [FRT3-4]	+++ (41%-54% (+++))	+++ (40.1%-54% (+++))	No specific antibodies	significantly suppressed FIV infection; also recorded: suppress	↓	–	–	↓	–
